Assay results from patent publication US20030096893A1, “Oxidatively drying coating composition” (priority 2001, published 2003).
Like-named read-outs stand apart in the source and are kept apart here.

Experiment: Solubility of the ligand in Shellsol D40 at 23° C.
Format: physicochemical
Protocol: This condensation product was added to Shellsole® D40 at a temperature of 23° C. The solubility of the ligand was less than 10 g/l.
Comparative Example A was repeated using 2-hydroxy 5-methyl benzaldehyde instead of salicyl aldehyde. Again, the resulting ligand was added to Shellsol® D40 at a temperature of 23° C. The solubilty of the ligand was less than 10 g/l.
(§1) Comparative Example A was repeated using 2-hydroxy 3,5-di tert. butyl benzaldehyde instead of salicyl aldehyde. Obtained was a ligand according to formula I having two tert. butyl substitutions on the two aromatic groups A1 and A2. The solubility in Shellsol® D40 at a temperature of 23° C. was higher than 20 g/l.
as §1, with “repeated again, now” for “repeated”, “5-dodecyl” for “3,5-di tert. butyl”, “a dodecyl substitution” for “two tert. butyl substitutions”, “100” for “20”

[1] = Shellsol D40 (aromate-free organic solvent), 23° C.

Compound	solubility of the ligand in Shellsol D40 [1]	solubility of the ligand in Shellsol D40
Cc1ccc(O)c(C=NC2CCCCC2N=Cc2cc(C)ccc2O)c1 (stereo not shown) [B]	less than 10 g/l	
Oc1ccccc1C=NC1CCCCC1N=Cc1ccccc1O (stereo not shown) [Comparative Example A, N,N′-bis(salicylidene) cyclohexylene diamine]		less than 10 g/l
CC(C)(C)c1cc(C=NC2CCCCC2N=Cc2cc(C(C)(C)C)cc(C(C)(C)C)c2O)c(O)c(C(C)(C)C)c1 (stereo not shown) [Example 1]	higher than 20 g/l	
CCCCCCCCCCCCc1ccc(O)c(C=NC2CCCCC2N=Cc2cc(CCCCCCCCCCCC)ccc2O)c1 (stereo not shown) [Example 2]	higher than 100 g/l	
